Data on 19 compounds can be found in patent US20140274688A1, “MOLECULES HAVING CERTAIN PESTICIDAL UTILITIES, AND INTERMEDIATES, COMPOSITIONS, AND PROCESSES RELATED THERETO” (DOW AGROSCIENCES LLC, priority 2013, published 2014).

Structures are written as SMILES.

The subject of series [1] is Yellow Fever Mosquito "YFM" (Aedes aegypti). Particulars: for YFM rating (mortality class): Yellow Fever Mosquito larvae, 96-well plates; for YFM: Table ABC (P), rating of mortality, Yellow Fever Mosquito.
Series [2] relates to Beet Armyworm (Spodoptera exigua) ("BAW"). Put plainly: Bioassay on Beet Armyworm (BAW), 128-well diet tray assay, percent mortality. Type of series: in vivo. Particulars: for BAW rating (percent mortality class): Beet Armyworm, 128-well diet tray assay; for pest or weed control at 50 µg/cm2: Spodoptera exigua, read-out: BAW. The method in brief:
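Larvae in covered diet trays held at 25 °C, 14:10 light-dark, for five to seven days. Percent mortality scored per well and averaged over eight wells per treatment.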

Series [3] has as its system Cabbage Looper (Trichoplusia ni) ("CL"). Put plainly: Bioassay on Cabbage Looper (CL), 128-well diet tray assay, percent mortality. Type of series: in vivo. Particulars: for CL rating (percent mortality class): Cabbage Looper, 128-well diet tray assay; for pest or weed control at 50 µg/cm2: Trichoplusia ni, read-out: CL. The method in brief:
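Larvae held in covered diet trays at 25 °C, 14:10 light-dark, for five to seven days. Percent mortality scored per well and averaged over eight wells.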

Take `Cc1ccc(C(C)C)c(N2C(=O)CS/C2=N\C(=O)NCCc2ccc(-c3ncn(-c4ccc(OC(F)(F)C(F)(F)F)cc4)n3)cc2)c1` [F9, (Z)-1-(3-(2-isopropyl-5-methylphenyl)-4-oxothiazolidin-2-ylidene)-3-(4-(1-(4-(perfluoroethoxy)phenyl)-1H-1,2,4-triazol-3-yl)phenethyl)urea]: the “YFM rating (mortality class)” value in series [1] is “A (80-100)”. Besides, the “BAW rating (percent mortality class)” value in series [2] is recorded as “A (50-100)”. Besides, in series [3], the “CL rating (percent mortality class)” value is listed as “A (50-100)”.

On to `CC(C)c1ccccc1NC(=S)NC(=O)NCc1ccc(-c2ncn(-c3ccc(OC(F)(F)F)cc3)n2)cc1` [F14, N-[2-(propan-2-yl)phenyl]-N′-(4-{1-[4-(trifluoromethoxy)phenyl]-1H-1,2,4-triazol-3-yl}benzyl)dicarbonimidothioic diamide], for which, in series [1], the “YFM rating (mortality class)” value is “A (80-100)”. In series [2], the “BAW rating (percent mortality class)” value is reported as “A (50-100)”. Also, the “CL rating (percent mortality class)” value in series [3] is given as “A (50-100)”.

For the compound `Cc1ccc(C(C)C)c(N2C(=O)CS/C2=N\C(=O)NCCCc2ccc(-c3ncn(-c4ccc(OC(F)(F)F)cc4)n3)cc2)c1` [F20, (Z)-1-(3-(2-isopropyl-5-methylphenyl)-4-oxothiazolidin-2-ylidene)-3-(3-(4-(1-(4-(trifluoromethoxy)phenyl)-1H-1,2,4-triazol-3-yl)phenyl)propyl)urea], in series [1], the “YFM rating (mortality class)” value is on record as “A (80-100)”. For the same compound, the “BAW rating (percent mortality class)” value in series [2] is reported as “A (50-100)”. In addition, the “CL rating (percent mortality class)” value in series [3] was “A (50-100)”.

Turning to `Cc1ccc(C(C)C)c(NC(=S)NC(=O)NCCCc2ccc(-c3ncn(-c4ccc(OC(F)(F)F)cc4)n3)cc2)c1` [F21, 1-[(2-isopropyl-5-methyl-phenyl)carbamothioyl]-3-[3-[4-[1-[4-(trifluoromethoxy)phenyl]-1,2,4-triazol-3-yl]phenyl]propyl]urea], the “YFM rating (mortality class)” value in series [1] is reported as “A (80-100)”. For the same compound, the “BAW rating (percent mortality class)” value in series [2] was “A (50-100)”. The “CL rating (percent mortality class)” value in series [3] was “A (50-100)”.

Consider `CC(C)c1ccccc1N1C(=O)CS/C1=N\C(=O)NC1CC1c1ccc(-c2ncn(-c3ccc(OC(F)(F)F)cc3)n2)cc1` (stereo not drawn) [F29, (Z)-1-(3-(2-isopropylphenyl)-4-oxothiazolidin-2-ylidene)-3-(2-(4-(1-(4-(trifluoromethoxy)phenyl)-1H-1,2,4-triazol-3-yl)phenyl)cyclopropyl)urea], for which the “YFM rating (mortality class)” value in series [1] was “A (80-100)”. In series [2], the “BAW rating (percent mortality class)” value is “A (50-100)”. The “CL rating (percent mortality class)” value in series [3] is recorded as “A (50-100)”.

Regarding `Cc1ccc(N2C(=O)CS/C2=N\C(=O)NCCc2ccc(-c3ncn(-c4ccc(OC(F)(F)F)cc4)n3)cc2)c(C(C)C)c1` [P26, (Z)-1-(3-(2-isopropyl-4-methylphenyl)-4-oxothiazolidin-2-ylidene)-3-(4-(1-(4-(trifluoromethoxy)phenyl)-1H-1,2,4-triazol-3-yl)phenethyl)urea], the YFM result in series [1] is “A (80-100)”. For the same compound, the pest or weed control at 50 µg/cm2 in series [2] and in series [3] was 50 to 100% throughout.

Regarding `Cc1cccc(N2C(=O)CS/C2=N\C(=O)NCCc2ccc(-c3ncn(-c4ccc(OC(F)(F)F)cc4)n3)cc2)c1C(C)C` [P27, (Z)-1-(3-(2-isopropyl-3-methylphenyl)-4-oxothiazolidin-2-ylidene)-3-(4-(1-(4-(trifluoromethoxy)phenyl)-1H-1,2,4-triazol-3-yl)phenethyl)urea], the YFM entry in series [1] is “A (80-100)”. Besides, the pest or weed control at 50 µg/cm2 in series [2] and in series [3] was 50 to 100% each time.

Consider `CC(C)c1cc(F)ccc1N1C(=O)CS/C1=N\C(=O)NCCc1ccc(-c2ncn(-c3ccc(OC(F)(F)F)cc3)n2)cc1` [P28, (Z)-1-(3-(4-fluoro-2-isopropylphenyl)-4-oxothiazolidin-2-ylidene)-3-(4-(1-(4-(trifluoromethoxy)phenyl)-1H-1,2,4-triazol-3-yl)phenethyl)urea], for which, in series [1], the YFM entry is recorded as “A (80-100)”. Further, the pest or weed control at 50 µg/cm2 in series [2] and in series [3] was 50 to 100% throughout.

As for `CCCc1ccc(C)cc1N1C(=O)CS/C1=N\C(=O)NCCc1ccc(-c2ncn(-c3ccc(OC(F)(F)F)cc3)n2)cc1` [P29, (Z)-1-(3-(5-methyl-2-propylphenyl)-4-oxothiazolidin-2-ylidene)-3-(4-(1-(4-(trifluoromethoxy)phenyl)-1H-1,2,4-triazol-3-yl)phenethyl)urea], in series [1], the YFM entry is given as “A (80-100)”. Further, the pest or weed control at 50 µg/cm2 in series [2] and in series [3] was 50 to 100% each time.

Regarding `CC(C)(C)c1ccccc1N1C(=O)CS/C1=N\C(=O)NCCc1ccc(-c2ncn(-c3ccc(OC(F)(F)F)cc3)n2)cc1` [P30, (Z)-1-(3-(2-(tert-butyl)phenyl)-4-oxothiazolidin-2-ylidene)-3-(4-(1-(4-(trifluoromethoxy)phenyl)-1H-1,2,4-triazol-3-yl)phenethyl)urea], the YFM entry in series [1] was “A (80-100)”. Further, the pest or weed control at 50 µg/cm2 in series [2] and in series [3] was 50 to 100% in each case.

Regarding `CCc1cc(C)ccc1N1C(=O)CS/C1=N\C(=O)NCCc1ccc(-c2ncn(-c3ccc(OC(F)(F)F)cc3)n2)cc1` [P31, (Z)-1-(3-(2-ethyl-4-methylphenyl)-4-oxothiazolidin-2-ylidene)-3-(4-(1-(4-(trifluoromethoxy)phenyl)-1H-1,2,4-triazol-3-yl)phenethyl)urea], the YFM entry in series [1] was “A (80-100)”. The pest or weed control at 50 µg/cm2 in series [2] and in series [3] was 50 to 100% in each case.

Regarding `CC(Cc1ccc(-c2ncn(-c3ccc(OC(F)(F)F)cc3)n2)cc1)NC(=O)/N=C1\SCC(=O)N1c1ccc(F)cc1C(C)C` (stereo not drawn) [P33, (Z)-1-(3-(4-fluoro-2-isopropylphenyl)-4-oxothiazolidin-2-ylidene)-3-(1-(4-(1-(4-(trifluoromethoxy)phenyl)-1H-1,2,4-triazol-3-yl)phenyl)propan-2-yl)urea], the YFM result in series [1] is “A (80-100)”. In addition, the pest or weed control at 50 µg/cm2 in series [2] and in series [3] was 50 to 100% each time.

As to `CCc1cccc(C)c1N1C(=O)CS/C1=N\C(=O)NC(C)Cc1ccc(-c2ncn(-c3ccc(OC(F)(F)F)cc3)n2)cc1` (stereo not drawn) [P42, (Z)-1-(3-(2-ethyl-6-methylphenyl)-4-oxothiazolidin-2-ylidene)-3-(1-(4-(1-(4-(trifluoromethoxy)phenyl)-1H-1,2,4-triazol-3-yl)phenyl)propan-2-yl)urea], the YFM entry in series [1] was “A (80-100)”. In addition, the pest or weed control at 50 µg/cm2 in series [2] and in series [3] was 50 to 100% throughout.

Take `COc1ccc(N2C(=O)CS/C2=N\C(=O)NCCc2ccc(-c3ncn(-c4ccc(OC(F)(F)F)cc4)n3)cc2)c(C)c1` [P44, (Z)-1-(3-(4-methoxy-2-methylphenyl)-4-oxothiazolidin-2-ylidene)-3-(4-(1-(4-(trifluoromethoxy)phenyl)-1H-1,2,4-triazol-3-yl)phenethyl)urea]: the YFM entry in series [1] was “A (80-100)”. Moreover, the pest or weed control at 50 µg/cm2 in series [2] and in series [3] was 50 to 100% each time.

On to `COc1ccc(N2C(=O)CS/C2=N\C(=O)NC(C)Cc2ccc(-c3ncn(-c4ccc(OC(F)(F)F)cc4)n3)cc2)c(C)c1` (stereo not drawn) [P45, (Z)-1-(3-(4-methoxy-2-methylphenyl)-4-oxothiazolidin-2-ylidene)-3-(1-(4-(1-(4-(trifluoromethoxy)phenyl)-1H-1,2,4-triazol-3-yl)phenyl)propan-2-yl)urea], for which, in series [1], the YFM entry is “A (80-100)”. Besides, the pest or weed control at 50 µg/cm2 in series [2] and in series [3] was 50 to 100% in each case.

Regarding `COc1cc(C)c(N2C(=O)CS/C2=N\C(=O)NCCc2ccc(-c3ncn(-c4ccc(OC(F)(F)F)cc4)n3)cc2)c(C)c1` [P47, (Z)-1-(3-(4-methoxy-2,6-dimethylphenyl)-4-oxothiazolidin-2-ylidene)-3-(4-(1-(4-(trifluoromethoxy)phenyl)-1H-1,2,4-triazol-3-yl)phenethyl)urea], in series [1], the YFM entry is reported as “A (80-100)”. Also, the pest or weed control at 50 µg/cm2 in series [2] and in series [3] was 50 to 100% in each case.

Consider `CCc1ccc(C)cc1N1C(=O)CS/C1=N\C(=O)NCCc1ccc(-c2ncn(-c3ccc(OC(F)(F)F)cc3)n2)cc1` [P49, (Z)-1-(3-(2-ethyl-5-methylphenyl)-4-oxothiazolidin-2-ylidene)-3-(4-(1-(4-(trifluoromethoxy)phenyl)-1H-1,2,4-triazol-3-yl)phenethyl)urea], for which the YFM result in series [1] is “A (80-100)”. Moreover, the pest or weed control at 50 µg/cm2 in series [2] and in series [3] was 50 to 100% in each case.

As for `CCc1cccc(C)c1N1C(=O)CS/C1=N\C(=O)NCCc1ccc(-c2ncn(-c3ccc(OC(F)(F)F)cc3)n2)cc1` [P50, (Z)-1-(3-(2-ethyl-6-methylphenyl)-4-oxothiazolidin-2-ylidene)-3-(4-(1-(4-(trifluoromethoxy)phenyl)-1H-1,2,4-triazol-3-yl)phenethyl)urea], in series [1], the YFM result is listed as “A (80-100)”. The pest or weed control at 50 µg/cm2 in series [2] and in series [3] was 50 to 100% throughout.

Regarding `Cc1ccc(C(C)C)c(N2C(=O)CS/C2=N\C(=O)NCCc2ccc(-c3ncn(-c4ccc(C(F)(F)F)cc4)n3)cc2)c1` [P52, (Z)-1-(3-(2-isopropyl-5-methylphenyl)-4-oxothiazolidin-2-ylidene)-3-(4-(1-(4-(trifluoromethyl)phenyl)-1H-1,2,4-triazol-3-yl)phenethyl)urea], in series [1], the YFM entry is “A (80-100)”. In addition, the pest or weed control at 50 µg/cm2 in series [2] and in series [3] was 50 to 100% throughout.
